# From publication PMC10115881, “Disrupting the α-synuclein-ESCRT interaction with a peptide inhibitor mitigates neurodegeneration in preclinical models of Parkinson’s disease” (Nature Communications, 2023)
# System: A53T a-syn-mediated cytotoxicity in HEK293 cells
# Assay: Pooled lentiviral 7-mer peptide cytotoxicity screen, A53T a-syn + MG132;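 as to Slope Norm Reads: reads normalized to total peptide reads per sample with scalar factor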
# Type: cell-based, human
# From the text: We used a lentiviral library of 50,549 7-mer peptides enriched in PPI motifs[13] on a green fluorescent protein (GFP) scaffold (Fig. 1A). We infected cells in a pooled format and the amino acid sequence of each peptide served as its own barcode. By using a low multiplicity of infection followed by puromycin selection, each infected cell expressed one unique GFP-peptide. We screened for peptides that reduced a-syn-mediated cytotoxicity or a-syn oligomers in parallel (Fig. 1A). To cause cytotoxicity relevant to PD, we induced proteostatic stress in HEK293 cells by inhibiting the proteasome with MG132 and overexpressing human WT a-syn associated with idiopathic PD in one screen or the more toxic mutant A53T a-syn associated with familial PD in a second screen. This combination of a-syn overexpression and pharmacological proteasome inhibition led to death of most cells, with only those that expressed a protective peptide surviving. By extracting genomic DNA from the surviving cells and amplifying the peptide coding sequences, we identified the protective peptides (Fig. 1A). To detect a-syn oligomers, we used a protein fragment complementation assay (PCA) of a-syn oligomerization in HEK293 cells. In this assay, human A53T a-syn was fused to either the C- or N-terminal half of yellow fluorescent protein (YFP). No fluorescence is detectable while a-syn exists in monomers but, when a-syn oligomerizes, the two halves of YFP come in close enough proximity to form a functional, spontaneously fluorescent protein. […] Our screens yielded 10 hits (Table S1). The hit with the most reads (i.e., the most abundant) was the same peptide in all screens: IPIQLKA (named PDpep1) (Table S1). We validated the cytoprotective effects of PDpep1 in HEK293 cells overexpressing WT or A53T a-syn (Figs. 1B, S1A), as well as its ability to reduce WT or A53T a-syn oligomers in a luciferase-based PCA[18]–[20] compared to a scrambled control peptide (Figs. 1C, S1B).
# HEK293T cells (ATCC, CRL-3216) were maintained in DMEM supplemented with 10% FBS and 1% pen/strep/glutamine, and the appropriate selection antibiotics when required. Lentiviruses were made in a 15 cm dish format by transfecting packaging cells (HEK293T) with a three-plasmid system (expression vector, psPAX2 and pMD2.G) and using Polyjet DNA transfection reagent (FroggaBio, SL100688.1). Viral transduction of HEK293T cells were performed with a multiplicity of infection (MOI) of 0.3. Infected cells were selected in puromycin-containing medium to eliminate uninfected cells and three aliquots of cells were collected for sampling of the initial (T0) cell population. Cells were treated with MG132 at concentrations of 0, 10, 25, or 50 µM. For the cell viability screen, surviving cells were collected and gDNA was extracted for identification of peptide inhibitors of cell toxicity. For the inhibition of a-syn aggregation screen, a protein fragment complementation assay (PCA) was used by transfecting cells with split YFP-a-syn constructs following stable expression of the peptides. Cells were sorted based on their YFP fluorescence intensities with a FACSVantage SE cell sorter (BD Bioscience) and gDNA was extracted for identification of peptides.
# Genomic DNA (gDNA) from peptide expressing cells at different time-points was extracted using QIAamp DNA Blood Mini Kit. PCR amplifications of peptides from gDNA in parallel with the lentiviral plasmid library (naïve library) were performed using indexed Illumina PCR primers to incorporate both the Illumina adapter sequences and indexing sequences. Each 50 μl reaction contained 3.2 μg of template, 2× PCR buffer, 2× enhancer solution, 300 μM each dNTP, 900 nM each of Adapter A (5′-[…]-[…]-3′) and Adapter B (5′-[…]-[…]-3′), 1 mM MgSO4, 3.75 units of Platinum Pfx polymerase, and water to 50 μl. […]
substance,measurement,setting,value
"IPIQLKA [PDpep1, initial screen hit peptide IPIQLKA]",Reads 10M MG132,,20
same,Reads 25M MG132,,3859
same,Reads 50M MG132,,13308
same,Slope Norm Reads,,40.54
same,Reads 0M MG132,"Illumina reads, average Phred >30",168
